Test results as given in US12208181B2, “Medication infusion components and systems” (MEDTRONIC MINIMED, INC., priority 2017, dated 2025).
“Also recorded” adds a separate entry of the source.

Key:
diabetic porcine model [1] = test: Insulin infusion site-loss study in diabetic porcine model (extended wear infusion set); assay type: in vivo, pig; conditions: for Effect on site-loss compared with control: diabetic pigs, agent given with insulin (Humalog) infusion, control without agent; for No site loss for: Sof-Set
Protocol: The objectives of this study include duplicating the site-loss phenomena observed in previous studies using a diabetic porcine model. Additionally, various infusion set configurations are evaluated for reducing site-loss and extending infusion set wear. Further, site-loss is mitigated using a response-inhibiting agent and/or infusion pump to increase reliability of wear for 3 days and extend infusion set wear beyond 3 days.
The objectives of this study include: duplicating the site-loss phenomena observed in previous studies using the diabetic porcine model; using the established diabetic porcine model to evaluate the effects of various infusion set designs on infusion site-loss; and testing if site-loss can be mitigated by direct pump infusing of immunosuppressant/anti-inflammatory drugs, and/or by modifying infusion set by drug coating.
This study is designed so that each set (inserted under anesthesia) is to be worn for 1 week unless there was set failure/dislodge. Glucose is monitored by a blood glucose meter and Enlite™ sensor. The criteria for determining site loss is that blood glucose is greater than 350 mg/dl and fails to decrease following an insulin dose correction. During biopsy pumps are removed but the cannula is maintained in-situ. Site skin is examined for edema/erythema (swell/redness) (see FIG. 8).

diabetic Yucatan pigs = test: Site-loss evaluation during CSII (Example 1); assay type: in vivo
Excerpt: (§1) The goal of studying insulin infusion site-loss using a diabetic porcine model is to establish the methods and animal model necessary to reproduce the phenomenon of site-loss in Continuous Subcutaneous Insulin Infusion (CSII). Methodologies are established for evaluating infusion sites in healthy and diabetic pigs, including device placement and animal management, glucose monitoring, insulin detection, pharmacokinetics, site harvesting, and pathological evaluation. The host response to implanted functional devices is assessed in healthy and diabetic pigs. Parameters that are believed to impact site-loss are varied until site-loss is observed.
Site-loss was evaluated using a criteria of a prolonged high blood glucose level (greater than 350 mg/dl) as well as being ineffectively controlled by increasing insulin basal/bolus rate. Site-loss observed was pig dependent, sometimes site-dependent. […] The other two pigs (#341425 and #341426) had no site-loss in 7 days if a proper site was located. In general, the pigs with observed site-loss were less responsive to a Humalog™ dose. Histologically, the predominant tissue response was inflammation and, with longer infusion, fibrosis. Inflammation scores trended to be of higher grade in diabetic pigs compared to normal pigs, with a larger inflammation area around the catheter tip. […]

diabetic pig = test: Histopathology of infusion sites (inflammation at catheter tip and body); assay type: in vivo
Excerpt: FIG. 2A is a series of histologic evaluations at the catheter tip showing the inflammatory response (score), and size of the area with tissue reaction. “*” indicates the catheter location and “F” indicates normal fat. […] FIG. 2B is a series of graphs illustrating the inflammation at the catheter tip for diabetic and non-diabetic pigs. Localized inflammation loosely correlated with site-loss.
FIG. 2C is a series of graphs illustrating the predominate inflammation cells at the catheter tip and catheter body (qualitative). To isolate the main inflammation contributors, a catheter, a catheter infused with insulin (Humalog™), and a catheter infused with placebo were placed on a diabetic pig at the same time.
FIG. 2D is a series of graphs illustrating the predominate inflammation cells at the catheter tip and catheter body of an insulin injection port (i-Port™). To isolate the main inflammation contributors, a catheter, a catheter infused with insulin, and a catheter infused with placebo were placed on a diabetic pig. Compared to continuous infusion, the giant cells are missing in the i-Port™ study. […] As observed by the pathologist, the pigs may have developed a hypersensitivity to the Humalog™ and such a reaction would contribute to the inflammation seen (the degree that hypersensitivity is influencing the inflammation is unclear but it could be one of the main drivers).

[2] = system: normal and diabetic Yucatan pigs; test: PK/PD study: blood glucose response to Humalog; assay type: in vivo
Excerpt: as §1

diabetic porcine model [3] = test: Local toxicity observation in diabetic porcine model; conditions: prefilled heparin/insulin, Sof-Set; heparin 100-800 U/mL insulin (U100)
[4] = diabetic pigs, compared to catheter and placebo

C[C@@H]1C[C@H]2[C@@H]3CCC4=CC(=O)C=C[C@]4(C)[C@@]3(F)[C@@H](O)C[C@]2(C)[C@@]1(O)C(=O)COP(=O)(O)O [DXP, Dexamethasone Phosphate]
Effect on site-loss compared with control (diabetic porcine model [1]): performing significantly worse than the control

Insulin lispro [Humalog]
Site-loss observed at (diabetic Yucatan pigs; pigs #341423 and #341424, blood glucose >350 mg/dl criterion): approximately 3 days | No site-loss in (diabetic Yucatan pigs; pigs #341425 and #341426, if a proper site was located): > 7 days | Order of evaluated inflammation scores (diabetic pig; catheter, catheter infused with insulin (Humalog), catheter infused with placebo on one diabetic pig): insulin≥placebo≥catheter; also recorded: insulin≥placebo≥cannula | Localized inflammation (diabetic pig; [4]): associated with increased localized inflammation | Localized tissue fibrosis (diabetic pig; [4]): main contributor to localized tissue fibrosis | Blood glucose lowering [2]: effectively lower blood glucose level

CO[C@H]1C[C@@H]2CC[C@@H](C)[C@@](O)(O2)C(=O)C(=O)N2CCCC[C@H]2C(=O)O[C@H]([C@H](C)C[C@@H]2CC[C@@H](O)[C@H](OC)C2)CC(=O)[C@H](C)/C=C(\C)[C@@H](O)[C@@H](OC)C(=O)[C@H](C)C[C@H](C)/C=C/C=C/C=C/1C [rapamycin]
Effect on Site-Loss: site-loss after / duration of wear (diabetic porcine model [1]; 1 pig using Sof-Set, rapamycin later found degraded in solution after use): 5 days | Signs of improvement: recovery after (diabetic porcine model [1]; rapamycin dosed with Humalog): around 6 days | No site loss for (diabetic porcine model [1]; rapamycin spiked in insulin, around 0.6 μg/day): more than 6 days

C[C@H]1C[C@H]2[C@@H]3CCC4=CC(=O)C=C[C@]4(C)[C@@]3(F)[C@@H](O)C[C@]2(C)[C@@]1(O)C(=O)COP(=O)([O-])[O-].[Na+].[Na+] [BSP, Betamethasone Sodium phosphate]
Effect on site-loss compared with control (diabetic porcine model [1]): performing significantly worse than the control

heparin
Local toxicity (diabetic porcine model [3]): No local toxicity was observed | Infusion site active (diabetic porcine model [1]; Sof-Set with heparin dosed insulin (FIGS. 17, 18)): up to 13 days | Site-loss (glucose monitoring) (diabetic porcine model [1]; U100 Humalog with heparin sodium, actual 3.55 mg/mL or 685 U/mL, continuous infusion, pigs IM3 and IM4): > 6 days | Effect on site-loss compared with control (diabetic porcine model [1]): performing significantly better than the control | No site loss for (diabetic porcine model [1]; prefilled heparin/insulin, heparin 100-800 U/mL insulin (U100)): greater than 13 days

dextran
Infusion site active (diabetic porcine model [1]; Sof-Set with dextran dosed insulin (FIG. 22)): up to 6 days | Effect on site-loss compared with control (diabetic porcine model [1]): performing significantly better than the control | Efficacy in extending infusion set wear / site-loss mitigation (in words) (diabetic porcine model [1]; diabetic porcine model): efficacy of dextran in extending infusion set wear
